# pKi: −log10 of the molar value.
# Assay: Compound was tested for its binding affinity at Thromboxane A2/ Prostaglandin H2 receptor by measuring its ability to displace [3H]U-46619 from guinea pig platelets
row,Compound,pKi
1,O=C(O)c1ccc2c(c1)/C(=C/Cn1cnc3cc(Cl)ccc31)c1ccccc1CO2,8.22
2,Cc1ccc2c(ncn2C/C=C2\c3ccccc3COc3ccc(C(=O)O)cc32)c1C,8.44
3,COc1cc(OC)c2c(c1)ncn2C/C=C1\c2ccccc2COc2ccc(C(=O)O)cc21,8.21
4,Cc1cc2ncn(C/C=C3\c4ccccc4COc4ccc(CC(=O)O)cc43)c2cc1C,7.20
5,Cc1cc2ncn(C/C=C3\c4cc(C(=O)O)ccc4COc4ccccc43)c2cc1C,5.89
6,Cc1ccc2ncn(C/C=C3\c4ccccc4COc4ccc(C(=O)O)cc43)c2c1,7.64
7,O=C(O)c1ccc2c(c1)/C(=C/Cn1cnc3ccc(Cl)cc31)c1ccccc1CO2,7.82
8,COc1cc(OC)c2ncn(C/C=C3\c4ccccc4COc4ccc(C(=O)O)cc43)c2c1,7.06
9,O=C(O)c1ccc2c(c1)/C(=C/Cn1cnc3cc(C(O)c4ccccc4)ccc31)c1ccccc1CO2 (centres undefined),8.21
10,"Cc1cc2ncn(C/C=C3\c4ccccc4COc4ccc(C(=O)O)cc43)c2cc1C [11-[2-(5,6-Dimethyl-benzoimidazol-1-yl)-ethylidene]-6,11-dihydro-dibenzo[b,e]oxepine-2-carboxylic acid (0.5H2O)]",8.57
11,Cc1cccc2c1ncn2C/C=C1\c2ccccc2COc2ccc(C(=O)O)cc21,7.77
12,O=C(O)c1ccc2c(c1)/C(=C/Cn1cnc3cc([N+](=O)[O-])ccc31)c1ccccc1CO2,8.74
13,O=C(O)c1ccc2c(c1)/C(=C/Cn1cnc3cc(C(=O)O)ccc31)c1ccccc1CO2,7.52
14,Cc1cc2ncn(C/C=C3/c4ccccc4COc4ccc(C(=O)O)cc43)c2cc1C,7.19
15,O=C(O)c1ccc2c(c1)/C(=C\Cn1cnc3ccccc31)c1ccccc1CO2,7.82
16,COc1ccc2c(c1)ncn2C/C=C1\c2ccccc2COc2ccc(C(=O)O)cc21,8.49
17,O=C(O)c1ccc2c(c1)/C(=C/Cn1cnc3cc(C(=O)NCc4ccccc4)ccc31)c1ccccc1CO2,9.04
18,COc1cc2ncn(C/C=C3\c4ccccc4COc4ccc(C(=O)O)cc43)c2cc1OC,8.47
19,O=C(O)c1ccc2c(c1)/C(=C/Cn1cnc3cc4ccccc4cc31)c1ccccc1CO2,6.55
20,O=C(O)c1ccc2c(c1)/C(=C/Cn1cnc3cc(C(F)(F)F)ccc31)c1ccccc1CO2,8.66
21,Cc1cc2ncn(C/C=C3\c4ccccc4COc4cc(C(=O)O)ccc43)c2cc1C,5.74
22,O=C(O)c1ccc2c(c1)/C(=C/Cn1cnc3ccc(C(O)c4ccccc4)cc31)c1ccccc1CO2 (centres undefined),7.77
23,O=C(O)c1ccc2c(c1)/C(=C/CNS(=O)(=O)c1ccccc1)c1ccccc1CO2,7.96
24,Cc1ccc2c(c1)ncn2C/C=C1\c2ccccc2COc2ccc(C(=O)O)cc21,7.82
25,O=C(O)c1ccc2c(c1)/C(=C/Cn1cnc(-c3ccccc3)c1-c1ccccc1)c1ccccc1CO2,6.79
26,COc1ccc2ncn(C/C=C3\c4ccccc4COc4ccc(C(=O)O)cc43)c2c1,7.92
27,O=C(O)c1ccc2c(c1)/C(=C/Cn1cnc3cc(F)ccc31)c1ccccc1CO2,8.08
28,Cc1cc2ncn(CCC3c4ccccc4COc4ccc(C(=O)O)cc43)c2cc1C (centres undefined),7.74
29,O=C(O)c1ccc2c(c1)/C(=C/Cn1cnc3cc4c(cc31)OCO4)c1ccccc1CO2,8.57

# Source: BindingDB's records for doi:10.1021/jm00096a017 (Kyowa Hakko Kogyo, 1992)
